The test system of assay [1] is SK-BR-3. Briefly: Antiproliferative activity against human SKBR3 cells after 72 hrs by MTS assay. Type of assay: functional, cell-based. As to conditions: SK-BR-3, 72 h.
In assay [2] the test system is MCF7. Nature of the assay: Antiproliferative activity against human MCF7 cells after 72 hrs by MTS assay. Type of assay: functional, cell-based. The conditions noted are these: MCF7, 72 h. For orientation: Formazan colour is commonly taken as a measure of viable cells.
The test system of assay [3] is SK-BR-3. Nature of the assay: Ratio of IC50 for compound to IC50 for novobiocin for human SKBR3 cells. Type of assay: functional.
Assay [4] deals with Heat shock protein HSP 90-beta (Homo sapiens) (UniProt P08238). Nature of the assay: Inhibition of HSP90 in human MCF7 cells assessed as Akt degradation at 0.5 to 100 uM after 24 hrs by Western blot analysis. Type of assay: cell-based.
Assay [5] has as its system MCF7. Briefly: Ratio of IC50 for compound to IC50 for novobiocin for human MCF7 cells. Type of assay: functional.
For assay [6], the target named is Heat shock protein HSP 90-beta (Homo sapiens) (UniProt P08238). Briefly: Inhibition of HSP90 in human MCF7 cells assessed as Her2 degradation at after 24 hrs by Western blot analysis. Type of assay: cell-based.
For assay [7] the target is unchanged. Nature of the assay: Inhibition of HSP90 in human MCF7 cells assessed as Akt degradation after 24 hrs by Western blot analysis. Type of assay: cell-based. On the technique in general: A western blot detects proteins with antibodies after separation by electrophoresis.
Assay [8] shares this target. Briefly: Inhibition of HSP90 in human MCF7 cells assessed as Raf degradation at 0.5 to 100 uM after 24 hrs by Western blot analysis. Type of assay: cell-based.
Assay [9] shares this target. Briefly: Inhibition of HSP90 in human MCF7 cells assessed as Her2 degradation at 0.5 to 100 uM after 24 hrs by Western blot analysis. Type of assay: cell-based.
Assay [10] relates to SK-BR-3. Nature of the assay: Ratio of IC50 for compound to IC50 for DHN2 for human SKBR3 cells. Type of assay: functional.
Assay [11] concerns the target Heat shock protein HSP 90-beta (Homo sapiens) (UniProt P08238). Nature of the assay: Inhibition of HSP90 in human MCF7 cells assessed as Raf degradation after 24 hrs by Western blot analysis. Type of assay: cell-based.
For assay [12] the target is unchanged. Nature of the assay: Inhibition of HSP90 in human MCF7 cells assessed as Raf degradation at 0.5 to 7.5 uM after 24 hrs by Western blot analysis. Type of assay: cell-based.
For assay [13] the target is unchanged. Briefly: Inhibition of HSP90 in human MCF7 cells assessed as Her2 degradation at 0.5 to 7.5 uM after 24 hrs by Western blot analysis. Type of assay: cell-based.
Assay [14] shares this target. Briefly: Inhibition of HSP90 in human MCF7 cells assessed as Akt degradation at 0.5 to 7.5 uM after 24 hrs by Western blot analysis. Type of assay: cell-based.

Consider 24 molecules from ChEMBL document CHEMBL1773008 (ACS Med Chem Lett, 2010).

Activity calls are given as the source filed them. The calls are words filed in the database; no cut-off is given here.

Sequence of Heat shock protein HSP 90-beta (Homo sapiens) (P08238 whole entry): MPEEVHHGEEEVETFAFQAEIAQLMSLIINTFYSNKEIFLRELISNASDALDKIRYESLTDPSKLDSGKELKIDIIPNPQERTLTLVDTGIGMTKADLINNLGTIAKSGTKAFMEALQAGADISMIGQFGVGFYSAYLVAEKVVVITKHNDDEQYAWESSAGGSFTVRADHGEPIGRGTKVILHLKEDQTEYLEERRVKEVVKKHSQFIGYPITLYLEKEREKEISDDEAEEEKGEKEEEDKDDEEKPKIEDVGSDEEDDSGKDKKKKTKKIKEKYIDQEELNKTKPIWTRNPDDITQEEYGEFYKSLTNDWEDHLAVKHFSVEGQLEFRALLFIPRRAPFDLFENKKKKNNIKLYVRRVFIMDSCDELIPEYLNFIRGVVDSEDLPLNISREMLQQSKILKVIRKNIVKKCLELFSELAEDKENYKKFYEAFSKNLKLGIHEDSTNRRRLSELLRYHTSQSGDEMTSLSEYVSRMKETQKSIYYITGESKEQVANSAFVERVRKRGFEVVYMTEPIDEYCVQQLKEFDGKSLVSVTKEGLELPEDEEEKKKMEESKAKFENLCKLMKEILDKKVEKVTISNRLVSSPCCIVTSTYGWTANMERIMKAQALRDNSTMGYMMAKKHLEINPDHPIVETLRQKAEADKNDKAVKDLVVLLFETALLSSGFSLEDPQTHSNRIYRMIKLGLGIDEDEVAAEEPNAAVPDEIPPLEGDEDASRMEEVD

For the molecule `CC(=O)Oc1ccc(C(=O)Nc2cc3ccc(OC4CCCNC4)c(C)c3oc2=O)cc1CC=C(C)C` (stereo unspecified), the IC50 – broadly, the midpoint of a concentration-inhibition curve – with SK-BR-3 [1] was 1230 nM; in the assay with MCF7 [2], 1540 nM.
Regarding `CC(C)=CCc1cc(C(=O)Nc2cc3ccc(O[C@@H]4OCC[C@@H](O)[C@H]4O)c(C)c3oc2=O)ccc1O`, the IC50 with SK-BR-3 [1] is 6960 nM; with MCF7 [2], 13300 nM. Besides, the “Ratio IC50” value with SK-BR-3 [3] came to 1500.
In the same order, the values of `CC(C)=CCc1cc(C(=O)Nc2cc3ccc(O[C@H]4OCC[C@@H](O)[C@H]4O)c(C)c3oc2=O)ccc1O` are 10700 nM, 10000 nM and 1500.
As for `CC(=O)Oc1ccc(C(=O)Nc2cc3ccc(OC4CCN(C)CC4)c(C)c3oc2=O)cc1CC=C(C)C`, the IC50 with SK-BR-3 [1] was determined as 580 nM; with MCF7 [2] it was 1180 nM.
The corresponding values for `CC(=O)Oc1ccc(C(=O)Nc2cc3ccc(OC4CCNCC4)c(C)c3oc2=O)cc1CC=C(C)C` are 560 nM and 1530 nM.
Regarding `CC(C)=CCc1cc(C(=O)Nc2cc3ccc(O[C@H]4OCCC[C@H]4O)c(C)c3oc2=O)ccc1O`, the figures for the IC50 with SK-BR-3 [1] and with MCF7 [2] were 7870 nM and 6450 nM, respectively. Further, the “Ratio IC50” value with SK-BR-3 [3] is given as 1500.
Consider `CC(C)=CCc1cc(C(=O)Nc2cc3ccc(O[C@@H]4OC[C@@H](O)[C@H]4O)c(C)c3oc2=O)ccc1O`, for which the IC50 was determined as 14400 nM in the assay on SK-BR-3 [1] and 14300 nM with MCF7 [2]. The “Ratio IC50” value in the assay with SK-BR-3 [3] is 1500.
In the same order, the values of `CC(C)=CCc1cc(C(=O)Nc2cc3ccc(O[C@@H]4C[C@H](O)CO4)c(C)c3oc2=O)ccc1O` are 22200 nM, greater than 100000 nM and 1500.
With `CO[C@@H]1[C@@H](O)[C@@H](O)[C@H](Oc2ccc3cc(NC(=O)c4ccc(O)c(CC=C(C)C)c4)c(=O)oc3c2C)OC1(C)C`, the IC50 came out at 10900 nM in the assay on SK-BR-3 [1] and 11300 nM in the assay with MCF7 [2]. In the assay with SK-BR-3 [3], the “Ratio IC50” value was determined as 1500.
`CC(C)=CCc1cc(C(=O)Nc2cc3ccc(O[C@H]4C[C@H](O)CCO4)c(C)c3oc2=O)ccc1O`: the IC50 stood at 3110 nM in the assay with SK-BR-3 [1] and 1560 nM in the assay with MCF7 [2]. In addition, the inhibition entry in assay [4], in assay [8] and in assay [9] was “Active” throughout. The figures for the “Ratio IC50” value with MCF7 [5], in the assay with SK-BR-3 [3] and in the assay with SK-BR-3 [10] were 200, 200 and 3, respectively. Besides, the inhibition result in assay [6], in assay [7] and in assay [11] was “Dose-dependent effect” throughout.
`CC(C)=CCc1cc(C(=O)Nc2cc3ccc(OC4CCN(C)CC4)c(C)c3oc2=O)ccc1O`: in the assay on MCF7 [2], half-maximal inhibition (IC50) required 1090 nM.
On to `CC(C)=CCc1cc(C(=O)Nc2cc3ccc(OCCN(C)C)c(C)c3oc2=O)ccc1O`, for which the IC50 with SK-BR-3 [1] was 9450 nM; in the assay on MCF7 [2], 13500 nM.
As to `CC(C)=CCc1cc(C(=O)Nc2cc3ccc(O[C@@H]4OCCC[C@H]4O)c(C)c3oc2=O)ccc1O`, the concentration for half-maximal inhibition (IC50) in the assay on SK-BR-3 [1] came out at 30000 nM; in the assay on MCF7 [2], 10200 nM. Also, the “Ratio IC50” value in the assay on SK-BR-3 [3] is 1500.
Take `CC(C)=CCc1cc(C(=O)Nc2cc3ccc(OC4CCCNC4)c(C)c3oc2=O)ccc1O` (stereo unspecified): the figures for the IC50 with SK-BR-3 [1] and in the assay with MCF7 [2] were 790 nM and 1680 nM, respectively.
For `CC(=O)Oc1ccc(C(=O)Nc2cc3ccc(OCCN(C)C)c(C)c3oc2=O)cc1CC=C(C)C`, the results for the 50% inhibitory concentration (IC50) in the assay with SK-BR-3 [1] and in the assay with MCF7 [2] were 1320 nM and 4760 nM, respectively.
In the same order, the values of `CC(=O)Oc1ccc(C(=O)Nc2cc3ccc(OC4CCCN(C)C4)c(C)c3oc2=O)cc1CC=C(C)C` (stereo unspecified) are 1420 nM and 1570 nM.
The corresponding values for `CNCCOc1ccc2cc(NC(=O)c3ccc(OC(C)=O)c(CC=C(C)C)c3)c(=O)oc2c1C` are 910 nM and 2080 nM.
With `CC(C)=CCc1cc(C(=O)Nc2cc3ccc(OC4CCNCC4)c(C)c3oc2=O)ccc1O`, the figures for the IC50 in the assay with SK-BR-3 [1] and in the assay on MCF7 [2] were 470 nM and 850 nM, respectively. Also, the inhibition result in assay [6], in [7] and in assay [11] was “Dose-dependent effect” throughout. Moreover, the inhibition entry in [12], in assay [13] and in assay [14] was “Active” in each case.
For `CC(=O)Oc1ccc(C(=O)Nc2cc3ccc(OCCCN(C)C)c(C)c3oc2=O)cc1CC=C(C)C`, the IC50 with SK-BR-3 [1] worked out at 460 nM; in the assay on MCF7 [2], 1180 nM.
The corresponding values for `CNCCOc1ccc2cc(NC(=O)c3ccc(O)c(CC=C(C)C)c3)c(=O)oc2c1C` are 750 nM and 1330 nM.
The corresponding values for `CC(C)=CCc1cc(C(=O)Nc2cc3ccc(OC4CCCN(C)C4)c(C)c3oc2=O)ccc1O` (stereo unspecified) are 4690 nM and 10100 nM.
`CC(C)=CCc1cc(C(=O)Nc2cc3ccc(O[C@@H]4C[C@H](O)CCO4)c(C)c3oc2=O)ccc1O`: the concentration for half-maximal inhibition (IC50) with SK-BR-3 [1] was determined as 5070 nM; in the assay with MCF7 [2], 1340 nM. In the assay on SK-BR-3 [3], the “Ratio IC50” value turned out to be 1500.
For `CC(C)=CCc1cc(C(=O)Nc2cc3ccc(OCCCN(C)C)c(C)c3oc2=O)ccc1O`, the IC50 was determined as 440 nM with SK-BR-3 [1] and 1350 nM with MCF7 [2].
As to `CC(C)=CCc1cc(C(=O)Nc2cc3ccc(O[C@H]4C[C@H](O)CO4)c(C)c3oc2=O)ccc1O`, the IC50 with SK-BR-3 [1] was determined as 21500 nM; with MCF7 [2], 22500 nM. Moreover, the “Ratio IC50” value in the assay on SK-BR-3 [3] came out at 1500.
